# Measured values taken from patent US20230190866A1, “PEPTIDE FOR THE TREATMENT OF CYTOKINE STORM SYNDROME” (priority 2020, published 2023).
# Ends that are not written are not given here.
# How the values were obtained:
# [1] = patients, pharmaceutical composition
# Description: The peptide identified as SEQ ID NO: 1 is obtained by chemical synthesis. Through experiments such as those described in the present invention, those immunological mechanisms induced by the peptide that contribute in the control of hyperinflammation can be evaluated.
# [2] = system: acute respiratory distress syndrome in patients with Covid-19; details: ten treated Covid-19 patients
sequence,measurement,setting,value
SIDLKDKYKNIGAKLVQLVANNTNEEA [peptide identified as SEQ ID NO: 1],serious adverse events,[1],No serious adverse events were identified
same,tolerability,[1],well tolerated
same,symptoms of immunosuppression,[2],did not present any symptoms of immunosuppression
